Test results from patent publication US10921327B2, “Probes for quantitative imaging of thiols in various environments” (Baylor College of Medicine, priority 2014, dated 2021).
“And” between values parts separate entries of the source, which are not always exact repeats. Equal values may be shown once.

How the values were obtained:
[1] = UV-Vis absorption, fluorescence and quantum yield; assay type: physicochemical; settings: for Quantum Yield (PBS): λex = 479 nm (TQ Green), 406 nm (TQ Green-GSH); for Quantum Yield (Methanol): Rhodamine 123 as standard
Excerpt: TQ Green absorbs at 479 nm and fluoresces at 590 nm (λex=488 nm, FIG. 3). The extinction coefficients of TQ Green and TQ Green-GSH at their maximum absorption wavelengths are (2.3±0.2)×10^4 M^−1·cm^−1 (a, =479 nm, Table 2) and (1.6±0.2)×10^4 M^−1·cm^−1 (λmax=407 nm, Table 1), respectively. Upon reacting with GSH, the Abs and Fl peaks shift hypsochromically to 406 and 463 nm (λex=405 nm), respectively. The Abs of TQ Green and TQ Green-GSH (the adduct between TQ Green and GSH) are close to 488 and 405 nm, respectively, which are two commonly used laser wavelengths for confocal microscopes. […]
NMR spectra were recorded on a Varian NMR (^1H at 400 MHz) spectrometer. Chemical shifts (δ) were given in ppm with reference to solvent signals [^1H NMR: CDCl3 (7.26), CD3OD (3.31)]. UV-Vis measurements were performed with 2×10 mm quartz cuvette in Cary 60 UV-is Spectrometer. Fluorescence measurements were performed with the same quartz cuvette in Cary Eclipse Fluorescence Spectrophotometer with an excitation slit of 5 nm, an emission slit of 10 nm and PMT at 650 V. Flash chromatography was performed on a Teledyne ISCO CombiFlashRf200. Olympus FV1000 laser scanning confocal microscope system was used for cell imaging. ESI mass spectrometry was measured on a BrukerMS microTOF ESI, at the Shared Equipment Authority at Rice University. Flow cytometry was performed on BD LSR II Flow Cytometer at BCM core facilities.
As summarized in Table 5, quantum yields of synthesized GSH probes and a GSH adduct with Rhodamine 123 as the standard were analyzed. Quantum yields were determined using a comparative method described previously. The bromine atom on the phenyl ring potentially enhances the push-pull effect of the coumarin-based fluorophore, thus increases the quantum yield.

[2] = Log D in octanol-PBS (pH 7.4) biphasic system; assay type: physicochemical; settings: octanol-PBS pH 7.4, read-out: Log D (pH = 7.4)
Excerpt: To further understand TQ Green distribution between hydrophobic and hydrophilic environments, Applicants measured the Log D values of TQ Green and TQ Green-GSH using an octanol-PBS (pH 7.4) biphasic system (Table 2). […] In addition, Applicants discovered that the absorbance maximum of TQ Green shifts from 480 nm to 455 nm when changing the solvents from PBS to octanol. Applicants hypothesize that if TQ Green is distributed in lipid membranes, the absorbance maximum and fluorescence intensity will change. […] Consistent with the Log D measurements, this experiment also supports the hypothesis that TQ Green accumulates in lipid membranes. Considering the high quantum yield of TQ Green in hydrophobic solvents, lipid enrichment of TQ Green seemingly complicates intracellular GSH quantification. […] However, the Kd′ values may be different under calibration conditions and inside cells, which may introduce a systemic error.

CCN(CC)c1ccc2cc(/C=C/C(=O)c3ccc(C(=O)O)cc3Br)c(=O)oc2c1 [TQ Green]
Abs Max Wavelength ([1]; PBS pH 7.4): 479 nm and 480 nm | Fl Emission Max Wavelength ([1]; PBS pH 7.4, λex = 488 nm (TQ Green), λex = 405 nm (TQ Green-GSH)): 590 nm | Quantum Yield (PBS) [1]: 0.0094±0.0004 | Quantum Yield (PBS) ([1]; listed as drawing 19): 0.0094 ± 0.0004 | Quantum Yield (Methanol) [1]: 0.16±0.05 | Quantum Yield (Methanol) ([1]; listed as drawing 18): 0.16 ± 0.05 | Absorbance maximum in octanol ([1]; octanol): 455 nm | logD [2]: 0.7
